Patent US4087328A, “Purification and immobilization of sulfhydryl oxidase” (Research Triangle Institute, priority 1975, dated 1978)

Test system: sulfhydryl oxidase
Assay: Effect of metal ions and EDTA on sulfhydryl oxidase activity
Assay type: biochemical, bovine
Protocol: In the second method of assay, the rate of O2 consumption was measured with an oscillating platinum electrode using a Gilson model K Oxygraph. In a typical assay, 0.2 ml of enzyme solution was added to 1.5 ml of 0.8 mM GSH which had been equilibrated at 35° in the electrode cell. […] Enzymic reaction rates were calculated from the initial slopes obtained.
Assays were performed in phosphate at pH 7.0 and 35° using 0.8 mM GSH as substrate. An aliquot of the stock enzyme solution was removed and assayed in the presence of 1.0 mM EDTA. […] Controls were prepared using boiled enzyme and also using the dialysate containing the metal ion. In both cases, significant O2 consumption was not observed.

[1] = EDTA-treated enzyme dialyzed against 1.0 mM solution of the metal ion, phosphate pH 7.0, 35°, 0.8 mM GSH

Compound: [Cl][Co][Cl] [Cobalt chloride]
- Enzyme activity [1]: 0.021 μmol O2 consumed/min.

Compound: O=S(=O)([O-])[O-].[Cu+2] [Copper sulfate]
- Enzyme activity [1]: 0.109 μmol O2 consumed/min.

Compound: O=C(O)CN(CCN(CC(=O)O)CC(=O)O)CC(=O)O [EDTA]
- Effect of EDTA treatment on enzyme activity: complete loss of activity
- Enzyme activity (pH 7): 0.012 μmol O2 consumed/min.

Compound: [Cl][Mn][Cl] [Manganese (II) chloride]
- Enzyme activity [1]: 0.085 μmol O2 consumed/min.

Compound: [Br][Mo][Br] [Molybdenum dibromide, molybdenum dibromide]
- Enzyme activity [1]: 0.008 μmol O2 consumed/min.

Compound: O=S(=O)([O-])[O-].[Zn+2] [Zinc sulfate]
- Enzyme activity [1]: 0.029 μmol O2 consumed/min.

Compound: Ferrous sulfate
- Enzyme activity [1]: 0.256 μmol O2 consumed/min.
- Restoration of activity after EDTA treatment (dialysis against 1 μM ferrous sulfate): restored
